System: S. Typhimurium PhoP-promoter GFP reporter counterscreen, fluorescence, 4 h
Assay: S. Typhimurium GFP fluorescence dose response in modified counterscreen for PhoP regulon inhibitor project (AID 1981)

Row | Structure (SMILES) | IC50 [µM]
1 | C[C@H]1COc2c(N3CCN(C)CC3)c(F)cc3c(=O)c(C(=O)O)cn1c23 | < 0.23
2 | COc1ccc(C(=O)Cn2nc(CNc3ccc(Br)cc3)[n+]3c2CCCCC3)cc1 | 106
3 | CCCCCCCCn1c2c(c(=N)c3ccccc31)CCC2 | 78.7
4 | CCCCCCCCCCOC(=O)Cn1c(COc2ccccc2OC)[n+](C)c2ccccc21 | 37
5 | Oc1ccc(CN2CCCc3ccccc32)c2cccnc12 | 20
6 | O=[N+]([O-])c1cc(Cl)c(O)c2ncccc12 | 5.99
7 | COC12C(COC(N)=O)C3=C(C(=O)C(C)=C(N)C3=O)N1CC1C2N1C (stereo unspecified) | 65.8
8 | COc1ccc(OCc2n(CC(=O)OC3CC(C)CCC3C(C)C)c3ccccc3[n+]2C)cc1 (stereo unspecified) | 113
9 | O=C1c2ccccc2C(=O)c2[nH]c(=O)[nH]c21 | 6.53
10 | CCCCCNCC(=O)Nc1cccc(C(=O)Nc2cccc(C(F)(F)F)c2)c1 | 135
11 | NC(N)=NN=C1CCCCCCCCCCC1 | 81.7
12 | O=C1c2ccccc2NC(c2ccc(-c3ccc(Br)cc3)o2)N1O (stereo unspecified) | 53
13 | C=C1c2cccc(O)c2C(O)=C2C(=O)[C@]3(O)C(O)=C(C(N)=O)C(=O)[C@@H](N(C)C)[C@@H]3[C@@H](O)[C@H]12 | 0.39
14 | NC1=NC[C@H](Cc2ccc(O)cc2)N1CCC12CC3CC(CC(C3)C1)C2 | 78.9
15 | Cc1ccc(C(=O)O)cc1N=Cc1cc(Br)cc(Br)c1O | 105
16 | CCc1ccc(CNc2ccc(O)cc2)cc1 | 94.9
17 | Cc1cc2nc3ccc(=[N+](C)C)cc-3sc2cc1N | 32.4
18 | Cc1ccc(C(=O)Sc2cccccc2=O)cc1 | 16.5
19 | CCCCCCCCCCCCCCCCn1cc[n+](C)c1 | 13
20 | Cc1ccc(Nc2nc(NCc3ccco3)c3ccccc3n2)cc1 | 23.6
21 | COc1cc(/C=C/[N+](=O)[O-])ccc1O | 65.1
22 | CC1COc2c(N3CCN(C)CC3)c(F)cc3c(=O)c(C(=O)O)cn1c23 (stereo unspecified) | 0.56
23 | CCn1cc(C(=O)O)c(=O)c2cc(F)c(N3CCN(C(=S)NC(=O)c4ccc(OC)cc4)CC3)cc21 | 13.4
24 | Cc1nnc(N/N=C/c2ccccn2)[nH]c1=O | 21.2
25 | CC(=O)NC(c1ccc(C)cc1)c1cc([N+](=O)[O-])c2cccnc2c1O (stereo unspecified) | 37.9
26 | COc1ccccc1CNCCc1ccc(F)cc1 | 61.4
